Test results taken from patent US4025528A, “Thiazole derivatives of benzoic and phenylalkanoic acids” (Shionogi & Co., Ltd., priority 1973, dated 1977).
Like-named read-outs stand apart in the source and are kept apart here.

Tests used:
[1] = tested on: guinea-pig; experiment: Anti-erythema Activity (ultraviolet light); assay type: in vivo
Protocol: 4. Anti-erythema Activity
The hair on the back of guinea-pig (300-400 g, male and female) is removed on the day before experiment. Thirty minutes after oral administration of a test drug, 3 circular areas (8 mm in diameter each) on the back of the animal are exposed to ultraviolet light for 60 seconds. Anti-erythema activity is evaluated at 2 hours after irradiation. The ED50 is calculated by Up and Down method of Brownlee et al. [J. Am. Stat. Assoc.

[2] = tested on: Wistar rat; experiment: Anti-granuloma Activity (carrageenin filterpaper); assay type: in vivo; conditions: 168 h
Protocol: 3. Anti-granuloma Activity
Two circular pieces of filterpaper about 6 mm in diameter, soaking 90 mg of 5% carrageenin solution, are implanted subcutaneously in the abdominal skin of Wistar rat (180-200 g, female). A test drug is orally given once a day for 6 consecutive days. On the 7th day the animals are killed and the amount of granulation tissue deposited, the adrenals and the thymus are weighed. The ED25 is calculated by the Bliss' method.

[3] = in vivo; conditions: mouse, po
[4] = tested on: DS mice; experiment: Acetic Acid Writhing Method; assay type: in vivo; conditions: Mus musculus, read-out: Acetic Acid Writhing ED (50%)
Protocol: 6. Acetic Acid Writhing Method
DS mice (20-23 g, male) are treated with an intraperitoneal injection of 0.1 ml/10 g of 0.6% acetic acid 60 minutes after oral administration of a test drug. The number of times of writhing for 10 minutes is counted. The ED50 is calculated by the Bliss' method.

[5] = tested on: Wistar rats; experiment: Anti-abscess Activity (carrageenin); assay type: in vivo, Wistar rat; conditions: Rattus norvegicus, read-out: Anti-abscess ED (25%)
Protocol: Carrageenin (2% aqueous solution, 0.5 ml) is subcutaneously injected into the back of Wistar rats (180-200 g, female) and at the same time one-half dose of a test compound is orally given, the other half given 3 hours later. The animals are sacrificed 24 hours after carrageenin and the abscess formed is isolated and weighed. The ED25 is calculated by the Bliss' method.

[6] = tested on: Wister rat; experiment: Anti-pyretic Activity (yeast); assay type: in vivo; conditions: read-out: Anti-pyretic Activity, dose by which body temperature is reduced 0.5° C.
Protocol: 11. Anti-pyretic Activity
A test compound is orally administered to Wister rat (180-200 g, female) 16 hours after an injection of 2 ml of 15% suspension of yeast into the subcutaneous tissue of the hip of the rat. The rectal temperature is measured every 1 hour for 5 hours. The effective dose is calculated by the Bliss' method.

[7] = tested on: Wistar rat; experiment: Foot-licking Method (formaldehyde); assay type: in vivo
Protocol: Thirty minutes after oral administration of a test drug in Wistar rat (180-200 g, female), the effect of the compound on foot-licking syndrome due to irritation by a subcutaneous injection of 0.05 ml of 3.75% formaldehyde into the plantar tissue of the hind-paw is observed for 50 minutes. The ED50 is calculated by the method of Litchfield and Wilcoxon.

[8] = tested on: Wistar rat; experiment: Effect on Adjuvant Arthritis; assay type: in vivo; conditions: 120 h
Protocol: 5. Effect on Adjuvant Arthritis
A test compound is orally administered to the arthritic rat twice a day for 5 consecutive days. Five hours after the final medication the change in swelling volume of the arthritic foot is measured. The ED30 is calculated by the Bliss' method.

[9] = tested on: Wistar rats; experiment: Anti-edema Activity (carrageenin foot edema); assay type: in vivo, Wistar rat; conditions: Rattus norvegicus, read-out: Anti-edema ED (30%)
Protocol: An aqueous solution of 1% carrageenin (0.05 ml) is used as phlogistic agent. After 30 minutes Wistar rats (180-200 g, female) are orally administered test compounds, the phalogistic agent is injected subcutaneously into the plantar parts of the foot of rats. The volume of swelling is measured 3 hours after carrageenin, and the anti-edema activity is determined by calculating the ratio of the edematous volume of medicated foot to that of non-medicated foot. […]

[10] = tested on: Wistar rat; experiment: Effect of Scald-inflamed Foot; assay type: in vivo; conditions: 1.5 h, read-out: Scald-inflamed Foot ED (100%)
Protocol: 7. Effect of Scald-inflamed Foot
A test drug is administered orally 90 minutes after scalding and the analgesic activity is evaluated by compressing the foot with a plunger.

[11] = tested on: Wistar rat; experiment: Effect on Yeast-inflamed Foot; assay type: in vivo; conditions: 2 h, oral, pain threshold two hours later, ED 100%
Protocol: 8. Effect on Yeast-inflamed Foot
A test compound is orally given Wistar rat (180-200 g, female) immediately before subcutaneous injection of 0.1 ml of 20% yeast suspension into the plantar tissue of the foot. Two hours later, the pain threshold is measured by comprissing the foot with a plunger and calculated by the method of Litchfield and Wilcoxon.

[12] = in vivo; conditions: rat, po
[13] = Cavia porcellus, light or radiation study, po, 2 h; read-out: Anti-erythema ED (50%)
[14] = oral once a day for 6 days, ED25, read-out: Anti-granuloma ED (25%)
[15] = oral, 60 minutes before 0.6% acetic acid i.p., ED50
[16] = oral, two half doses, 24 hours after carrageenin, ED25
[17] = oral, 16 hours after yeast injection
[18] = oral, thirty minutes before formaldehyde, ED50, read-out: Footlicking ED (50%)
[19] = oral twice a day for 5 days, ED30, read-out: Arthritis ED (30%)
[20] = oral, swelling 3 hours after carrageenin, ED 30%
[21] = oral, 90 minutes after scalding, pain threshold, ED 100%

Row | Structure (SMILES) | LD50 at 72 h [3] | ED100 [11] | LD50 at 72 h [12] | ED50 [1, 13] | ED25 [2, 14] | ED50 [4, 15] | ED25 [5, 16] | ED (0.5 degC reduction) [6, 17] | ED50 [7, 18] | ED30 [8, 19] | ED30 [9, 20] | ED100 [10, 21] | also measured
1 | CC(=O)Oc1ccccc1C(=O)O [Acetylsalicylic Acid, acetylsalicylic acid] | 2000 mg/kg | 250 mg/kg | 2400 mg/kg | – | – | – | – | – | – | – | – | – | ED50 ([1]; Cavia porcellus, light or radiation study, po, 2 h, read-out: Anti-erythema ED (50%)): 79 mg/kg; ED25 ([2]; po, read-out: Anti-granuloma ED (25%)): > 500 mg/kg; ED50 ([4]; po): 180 mg/kg; ED25 ([5]; po, 24 h): 175 mg/kg; ED (0.5 degC reduction) ([6]; po, 16 h): 14 mg/kg; ED50 ([7]; po, read-out: Footlicking ED (50%)): 580 mg/kg; ED30 ([8]; po, read-out: Arthritis ED (30%)): 100 mg/kg; ED30 ([9]; po, 3 h): 48 mg/kg; ED100 ([10]; po): 260 mg/kg
2 | Cc1nc(Oc2ccccc2)sc1C(C)C(=O)O (centres unmarked) [Example 48-140, calcium 2-(2-phenoxy-4-methyl-5-thiazolyl)propionate] | 1190 mg/kg | 110 mg/kg | 1200 mg/kg | 27 mg/kg | 230 mg/kg | 180 mg/kg | 60 mg/kg | 23 mg/kg | 130 mg/kg | 20 mg/kg | 14 mg/kg | > 500 mg/kg | –
3 | CC(C(=O)O)c1ccc(Oc2nccs2)cc1 (centres unmarked) [Example 48-156, 2-[4-(2-thiazolyloxy)phenyl]propionic acid] | – | 28 mg/kg | – | 20 mg/kg | 13 mg/kg | 20 mg/kg | 6.4 mg/kg | 4 mg/kg | 175 mg/kg | 4.2 mg/kg | 3.8 mg/kg | 77 mg/kg | –
4 | CCCCC1C(=O)N(c2ccccc2)N(c2ccccc2)C1=O [Phenylbutazone, phenylbutazone] | – | 130 mg/kg | – | 26 mg/kg | 24 mg/kg | 440 mg/kg | 33 mg/kg | 3.8 mg/kg | 150 mg/kg | 7.8 mg/kg | 48 mg/kg | 240 mg/kg | –
